Measurements reported in patent publication US20230365577A1, “Photodynamic Therapy and Diagnosis” (RMW CHO Group Limited, priority 2020, published 2023).

Key:
[1] = tested on: 4T1 orthotopically implanted breast tumours; assay: Photodynamic therapy of established breast tumours; assay type: in vivo, Balb/C wild type mice
Description: Balb/C wild type mice with established 4T1 orthotopically implanted breast tumours were administered compound 6 by IT injection. At 24 hours post-injection (allowing compound 6 to clear from non-tumour tissues), mice were placed in clear perspex cages and illuminated (whole body) under red (660 nm) light for a period of 20 minutes. Light (660 nm) was delivered at an intensity of 100 mW/cm^2 for 20 mins continuously, to achieve a total light dose of 120 J/cm^2. […]

LP9 = assay: Cytotoxicity, pan-cancer panel; assay type: cell-based; conditions: LP9, immortalised mesothelial cells
Description: (§1) To test for inherent cytotoxicity (i.e. “dark toxicity”) of the phyllochlorin analogue the culture media was replaced after 24 hours with fresh media containing 10% (v/v) AlamarBlue Cell Viability Reagent (ThermoFisher) and cells incubated at 37° C. for 6 hours. Untreated cells were used as a control. Fluorescence (Ex 555 nm/Em 596 nm) was measured using a Cytation 3 Multimode Plate Reader (Biotek), and cytotoxicity assessed according to the % viable cells remaining. All measurements were made in quadruplicate.
(§2) The activity of phyllochlorin analogues against multiple cancer cell types was assessed as above, using compounds 3 and 6 as examples.

MDA-MB-468 = assay: Cytotoxicity, pan-cancer panel; assay type: cell-based; conditions: MDA-MB-468, breast adenocarcinoma (triple negative)
Description: as §1, §2

B16F10 = assay: Cytotoxicity, pan-cancer panel; assay type: cell-based; conditions: B16F10, melanoma
Description: as §1, §2

DLD-1 = assay: Cytotoxicity, pan-cancer panel; assay type: cell-based; conditions: DLD-1, colorectal adenocarcinoma
Description: as §1, §2

HH = assay: Cytotoxicity, pan-cancer panel; assay type: cell-based; conditions: T cell lymphoma
Description: as §1, §2

A549 = assay: Cytotoxicity, pan-cancer panel; assay type: cell-based; conditions: A549, lung adenocarcinoma
Description: as §1, §2

HEK293 = assay: Cytotoxicity, pan-cancer panel; assay type: cell-based; conditions: HEK293, embryonic kidney
Description: as §1, §2

[2] = tested on: SKOV3 ovarian cancer cells; assay: Inherent cytotoxicity (dark toxicity) in SKOV3 cells (AlamarBlue viability); assay type: cell-based, Human; conditions: human, 24 h
[3] = Singlet oxygen (1O2) production rate; assay type: physicochemical
Description: The production of singlet oxygen (^1O2), cellular phototoxicity and light-independent cytotoxicity (“dark toxicity”) of a number of phyllochlorin analogues were compared against chlorin e4 disodium and Talaporfin sodium (mono-L-aspartyl chlorin e6), the active ingredient of Laserphyrin™.

[4] = tested on: 4T1 murine breast cancer cells; assay: Tumour localisation and retention, model 1 (subcutaneous 4T1 tumours); assay type: in vivo, Balb/C wild type mice
Description: Model 1 used Balb/C wild type mice implanted subcutaneously with 10^4×4T1 murine breast cancer cells. When tumours reached a palpable size (˜3-6 mm diameter) mice received compound 6 by either oral gavage (ORAL: 2.5 mg/kg), intravenous injection (IV: 1.0 mg/kg), or intratumoral injection (IT: 1.0 mg/kg in […]). To establish compound 6 localisation, mice were imaged using an IVIS Lumina III In Vivo Imaging System (Perkin Elmer) to detect fluorescence at 660 nm when illuminated under blue (400-460 nm) light.
In a second experiment, the localisation of compound 6 at 24 hours post-administration was compared to that of Talaporfin sodium and 5-Aminolevulinic acid (5-ALA), with all compounds injected at 0.1 mg/kg IT. Fluorescence measurements were made using an IVIS Lumina III instrument (as above).

[5] = tested on: ID8 murine ovarian cancer cells; assay: Tumour localisation and retention, model 2 (intraperitoneal ID8 metastatic disease); assay type: in vivo, C57BL/6 wild type mice
Description: Model 2 used C57BL/6 wild type mice implanted intraperitoneally with 1×10^6 ID8 murine ovarian cancer cells. Following a 4 week incubation (at which point metastatic peritoneal disease with macroscopically visible tumour deposits was established), mice received compound 6 by either oral gavage (ORAL: 2.5 mg/kg), intravenous injection (IV: 1.0 mg/kg), or intraperitoneal injection (IP: 1.0 mg/kg). Quantitative imaging was performed as above; however, due to the disseminated nature of ovarian cancer, imaging was performed at autopsy, using blue light (400 nm) illumination to visualise red fluorescence associated with compound 6 in tumour deposits.

C=Cc1c(C)c2cc3nc(c(C)c4cc(C)c(cc5nc(cc1[nH]2)C(C)=C5CC)[nH]4)[C@@H](CCC(=O)N(C)CCCS[C@@H]1O[C@H](CO)[C@@H](O)[C@H](O)[C@H]1O)[C@@H]3C [Compound 6, 3-((7S,8S)-18-ethyl-2,5,8,12,17-pentamethyl-13-vinyl-7H,8H-porphyrin-7-yl)-N-methyl-N-(3-(((2S,3R,4S,5S,6R)-3,4,5-trihydroxy-6-(hydroxymethyl)tetrahydro-2H-pyran-2-yl)thio)propyl)propanamide]
Tumour response ([1]; IT injection plus 660 nm light 120 J/cm2 at 24 hours, after 14 days): regressed to an undetectable level
Time to endpoint (tumour size ≥100 mm2) ([1]; compound alone, no laser): ≤ 13 days
Tumour regrowth ([1]; compound plus laser, after 3 weeks): no evidence of regrowth
Time to regression of established tumours to an undetectable level ([1]; compound plus laser, n=2/group): ≤ 14 days
Cytotoxicity IC10 (LP9): 19.63 µM
Cytotoxicity IC10 (MDA-MB-468): 13.25 µM
Cytotoxicity IC10 (B16F10): 22.85 µM
Cytotoxicity IC10 (DLD-1): 9.20 µM
Cytotoxicity IC10 (HH): 10.25 µM
Cytotoxicity IC10 (A549): 29.52 µM
Cytotoxicity IC10 (HEK293): 8.16 µM
Cellular Toxicity: Dark toxicity IC10 [2]: 9.49 µM
Cytotoxicity IC10 [2]: 9.49 µM
Singlet Oxygen Production (slope) 1O2 [3]: 1700.0
Tumour localisation at 24 hours post-administration ([4]; 0.1 mg/kg IT, primary breast tumours, IVIS fluorescence): localised strongly to tumour
Localisation and retention in tumour tissue ([4]; IT 1.0 mg/kg, model 1): at least 48 hours
Fluorescence retained in tumour ([4]; IV 1.0 mg/kg, model 1): at least 4 hours
Time of peak in tumour ([4]; IV 1.0 mg/kg, model 1): 1 h
Tumour fluorescence at 24 hours post-injection ([4]; IV 1.0 mg/kg, model 1): undetectable
Retention in tumour tissues following administration ([4]; in all cases (models 1 and 2, all routes)): at least 24 hours
Clearance from healthy tissues ([4]; in all cases, dependent on the tissue type): 4 to 16 h
Time of peak levels in tumour ([4]; oral gavage 2.5 mg/kg, model 1): 4 h
Time remaining above background in tumour ([4]; oral gavage 2.5 mg/kg, model 1): at least 24 hours
Localisation into metastatic nodules ([5]; IP 1.0 mg/kg): rapid and highly selective localisation
Retention in tumour following injection ([5]; IV 1.0 mg/kg): at least 24 hours
Time of peak tumour distribution ([5]; IV 1.0 mg/kg): 4 h
